The text below walks through data of patent publication US8937167B2 (Washington University, priority 2009, dated 2015).

Entries after “also recorded” stand apart in the source; their conditions may differ. Like-named read-outs stand apart in the source and are kept apart here.

The subject of experiment [1] is UTI89 biofilm. In words: Disruption of preformed UTI89 biofilm (PVC plates, coverslips, confocal). The experiment is classed as cell-based, uropathogenic E. coli UTI89. The conditions noted are these: mannoside added to 24 h biofilm, further 16 h; confocal at 0.3 μM. The protocol:
UTI89 biofilm was grown in LB+/− mannoside for 24 h at 22° C. in PVC plates and quantitated using crystal violet. UTI89 biofilm for confocal microscopy was grown in LB for 24 h at 22° C. on PVC coverslips. Mannoside was then added and biofilm was grown for an additional 16 h. Coverslips were then washed in PBS, fixed in 2% paraformaldehyde and stained with SYTO9 prior to confocal microscopy. For all animal experiments UTI89 or PBC-1 was grown 2×24 h statically in LB at 37° C. and inoculated at a dose of 1×10^7 bacteria in 50 μl. All mice used were female C3H/HeN (Jackson). For the pretreatment studies, bacteria were incubated with mannoside for 20 min prior to inoculation into the mouse. […] After growth at 37° C. overnight, bacterial counts were determined. […]
Biofilm assay. […] After 48 h of growth, wells were rinsed with water and stained with crystal violet for quantification as described. […] Wells were then rinsed, stained with crystal violet and quantified. […]
UTI89 was grown in LB in PVC plates and allowed to form biofilm at RT for 24 or 48 h. […] Biofilm formation was then quantitated using the standard crystal violet assay. […]
UTI89 was grown in LB broth in wells of PVC microtiter plates at 23° C. in the presence of individual mannosides at varying concentrations. After 48 h of growth, wells were rinsed with water and stained with crystal violet for quantification as described. […]

Experiment [2] deals with UTI89. As to the kind of experiment: Ex vivo gentamicin protection assay of infected mouse bladders (luminal vs intracellular bacteria). The conditions noted are these: IP 5 mg/kg pretreatment; 6 hpi. The experiment is classed as in vivo, E. coli (UPEC); host mouse. An excerpt:
Based on the extensive elucidation of the UPEC pathogenic cascade, critical nodes in pathogenesis that mannosides would target and thereby have powerful and potent therapeutic ramifications were identified. The first step in the UPEC pathway involves FimH-mediated colonization of the bladder epithelium via the recognition of mannose receptors. Bacterial invasion into superficial bladder umbrella cells can then ensue. […] To test this, a well-established gentamicin protection assay that allows the determination of the luminally bound fraction versus the intracellular fraction was utilized (FIG. 10). […] This may be due to contamination from bacteria in the urine or bacteria that are non-specifically associated with the epithelium. In any case, blocking invasion blocks the ability of the bacteria to rapidly expand in numbers. This is due to the ability of the mannosides to block the IBC mechanism.
Gentamicin protection assay. To enumerate bacteria present in the intracellular versus extracellular compartments, bladders were aseptically harvested at 6 hpi. The bladders were then bisected twice and washed three times in 500 μl of PBS each. The wash fractions were pooled, lightly spun at 500 rpm for 5 min to pellet exfoliated bladder cells, serially diluted, and plated onto LB agar to obtain the luminal fraction. The bladders were treated with 100 μg of gentamicin/ml for 90 min at 37° C. After treatment, the bladders were washed twice with PBS to eliminate residual gentamicin, homogenized in 1 ml of PBS, serially diluted, and plated onto LB agar to enumberate the CFUs in the intracellular fraction.
To enumerate bacteria present in the intracellular versus extracellular compartments, bladders were aseptically harvested at 6 hpi. The bladders were then bisected twice and washed three times in 500 μl of PBS each. The wash fractions were pooled, lightly spun at 500 rpm for 5 min to pellet exfoliated bladder cells, serially diluted, and plated onto LB agar to obtain the luminal fraction. The bladders were treated with 100 μg of gentamicin/ml for 90 min at 37° C. […]

Experiment [3] deals with FimH (Escherichia coli, UniProt Q1R2J4). The conditions noted are these: Examples 30-36 numbering.
Experiment [4] addresses T1, FimH lectin domain (Escherichia coli, UniProt P08191).
T1 construct: made by biotinylating FimH lectin domain^25 at a 1:1 molar ratio with NHS-PEO4-Biotin
In words: biochemical. The experiment is classed as binding, E. coli. The protocol:
Samples or buffer (200 μL per well) were dispensed into 96-well microtiter plates (Greiner Bio-One, Monroe N.C.) and maintained at 30° C. with 1000 RPM shaking. Pre-manufactured pins for individual assays were made by biotinylating FimH lectin domain^25 at a 1:1 molar ratio with NHS-PEO4-Biotin (Thermo Fisher, Rockford Ill.), diluting it to 50 μg/ml in 20 mM HEPES pH 7.5, 150 mM NaCl (HBS), immobilizing it on high-binding streptavidin-coated biosensor tips (Super Streptavidin, ForteBio, Inc., Menlo Park, Calif.) for 10 minutes at 30° C., blocking the pins with 10 μg/ml biocytin for 2 minutes, washing in HBS for 1 hour, and rinsing in 15% sucrose in HBS. Pins were then air dried for 30 minutes and stored in their original packaging with a dessicant packet. Assays were performed by re-wetting premade pins with HBS for 15 minutes, then storing them in fresh HBS until use. […] Each experimental pin was referenced to a biocytin-blocked pin to control for instrument drift and a second biocytin-blocked pin that was passed through a duplicate experiment in the same 96-well plate to control for nonspecific binding of the compound to the pin. Kinetics data and affinity constants were generated automatically by the global fitting protocol in ForteBio Data Analysis version 6.3.

Usually Kd stands for the constant that tells how readily two partners part at equilibrium.
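Throughout, for HAI Titer EC>90: hemagglutination inhibition of guinea pig erythrocytes agglutinated by type 1 piliated uropathogenic E. coli via FimH mannose binding, quantified through serial dilutions of compound.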

As to `CNC(=O)c1cc(C(=O)NC)cc(-c2ccc(O[C@H]3O[C@H](CO)[C@@H](O)[C@H](O)[C@@H]3O)cc2)c1` [ZFH-2056], the “disruption / dispersal of preformed biofilm, qualitative” value in experiment [1] is given as “lacked continuity; also recorded: dispersed biofilm”. For the same compound, in experiment [2], the “intracellular bacteria (CFUs after gentamicin treatment)” value was “eliminated all CFUs; also recorded: significantly reduced” and the luminal bacteria result was “significantly reduced”.

Turning to `COC(=O)c1cccc(-c2ccc(O[C@H]3O[C@H](CO)[C@@H](O)[C@H](O)[C@@H]3O)cc2)c1` [Compound 1, phenyl mannoside, reference compound], the “HAI Titer EC>90” value in experiment [3] (Table 17) worked out at 1.00 µM; in experiment [3] (Table 20) it was 1.000 µM. In addition, the “Kd, qualitative” value in experiment [4] is listed as “picomolar range”. Also, the Kd in experiment [4] (Table 20, read-out: Octet Kd) worked out at 0.08 nM.
